The values below come from US20150005262A1, “HYPOXIA ACTIVATED PRODRUGS AND MTOR INHIBITORS FOR TREATING CANCER” (THRESHOLD PHARMACEUTICALS, INC., priority 2011, published 2015).

Assay [1] deals with Caki-1 cells. Nature of the assay: Caki-1 RCC ectopic xenograft, TH-302 with everolimus. The class given is in vivo, nude mice. Particulars: Caki-1 model; everolimus 5 mg/kg QD×19 p.o.; TH-302 50 mg/kg QD×5/week×3 weeks i.p.; both started day 1.
In assay [2] the test system is SK-N-BE(2) cells. Description: SK-N-BE(2) ectopic neuroblastoma model, TH-302 with everolimus. The conditions noted are these: SK-N-BE(2) model; everolimus 5 mg/kg QD×19 oral; TH-302 50 mg/kg QD×5/week×3 weeks i.p. The class given is in vivo.
Assay [3] concerns the target mTOR (Homo sapiens, UniProt P42345). Particulars: cited from earlier work.
Assay [4] concerns 786-0 RCC xenograft tumors. Description: Tumor hypoxia (pimonidazole, morphometric analysis) in 786-0 xenograft. The class given is in vivo, nude mice. Particulars: for tumor hypoxic fraction: everolimus 5 mg/kg oral QD×8, TH-302 150 mg/kg i.p., sampled 72 hr after TH-302.
In assay [5] the test system is 786-0 cells. Description: 786-0 RCC ectopic xenograft, TH-302 with everolimus. Type of assay: in vivo, nude mice. The conditions noted are these: 786-0 model; everolimus 5 mg/kg QD×19 p.o.; TH-302 50 mg/kg QD×5/week×3 weeks i.p.; both started day 1.
The test system of assay [6] is Ki67, CD31, p-S6. Description: Pharmacodynamic study using immunohistochemistry of tumor tissue. The conditions noted are these: after 7 days treatment of everolimus. The class given is in vivo, nude mice.
Assay [7] concerns 786-0 cells. Description: 786-0 RCC ectopic xenograft, TH-302 with temsirolimus. Type of assay: in vivo, nude mice. Particulars: 786-0 model; temsirolimus 20 mg/kg QD×19 i.p.; TH-302 50 mg/kg QD×5/week×2 to 3 weeks i.p.; combination range covers day 1 and day 8 schedules. From the text: (§1) In one combination therapy group, the temsirolimus and TH-302 administration both began on day 1; in the other combination therapy group, the TH-302 administration was initiated on day 8 after the first temsirolimus administration. Thus, two TH-302 monotherapy groups served as comparison groups (one group starting on day 1 and the other starting on day 8). […] The weight returned to normal when treatment stopped.

In assay [8] the test system is Caki-1 RCC xenograft tumors. Nature of the assay: Tumor hypoxia (pimonidazole, morphometric analysis) in Caki-1 xenograft. Type of assay: in vivo, nude mice. Particulars: for tumor hypoxic fraction: temsirolimus 20 mg/kg i.p. QD×8, TH-302 150 mg/kg i.p., sampled 72 hr after TH-302; for change of tumor hypoxia (in words): vs vehicle, combination vs mTOR inhibitor alone. How it is done:
Nude mice bearing 786-0 or Caki-1 RCC xenograft tumors were randomized into 4 groups (6-8 mice/group): vehicle, mTOR inhibitor, TH-302 monotherapy, and TH-302 in combination with mTOR inhibitor, respectively. In the mTOR inhibitor monotherapy group, animals were dosed with a QD×8 regimen, and tumors were sampled 4 hr after the last treatment. In the TH-302 monotherapy group, 150 mg/kg was administered intraperitoneally to the animals, and the tumors were sampled 72 hr after the TH-302 treatment. In the combination therapy group, TH-302 was administered 4 hr after the last dose of mTOR inhibitor (QD×8, oral), and the tumors were sampled 72 hr later. Pimonidazole was administered 1 hr before euthanization (tumors were sampled on euthanization).
A dose of 20 mg/kg of temsirolimus was administered intraperitoneally in the Caki-1 xenograft model. […] After temsirolimus treatment, the tumor hypoxic fraction was 12.8±0.7%, as compared to 7.5±1.9% in vehicle treated group (p<0.05). The tumor hypoxic fraction in the TH-302 monotherapy group was 4.3±0.7%.

The test system of assay [9] is Caki-1 cells. Nature of the assay: Caki-1 RCC ectopic xenograft, TH-302 with temsirolimus. The class given is in vivo, nude mice. Particulars: Caki-1 model, temsirolimus 20 mg/kg QD×19 i.p.
From the text: as §1

In assay [10] the target is DNA-PK (Homo sapiens, UniProt P78527). Particulars: cited from earlier work.
The subject of assay [11] is PI3K. The conditions noted are these: read-out: IC50 for PI3-K; cited from earlier work.
Assay [12] deals with NCI-60 cell lines panel. Particulars: cited from earlier work.

Entries after “also recorded” stand apart in the source; their conditions may differ. A value given as a limit tells only on which side of the number the result lay.

Chain of DNA-PK (P78527 whole entry): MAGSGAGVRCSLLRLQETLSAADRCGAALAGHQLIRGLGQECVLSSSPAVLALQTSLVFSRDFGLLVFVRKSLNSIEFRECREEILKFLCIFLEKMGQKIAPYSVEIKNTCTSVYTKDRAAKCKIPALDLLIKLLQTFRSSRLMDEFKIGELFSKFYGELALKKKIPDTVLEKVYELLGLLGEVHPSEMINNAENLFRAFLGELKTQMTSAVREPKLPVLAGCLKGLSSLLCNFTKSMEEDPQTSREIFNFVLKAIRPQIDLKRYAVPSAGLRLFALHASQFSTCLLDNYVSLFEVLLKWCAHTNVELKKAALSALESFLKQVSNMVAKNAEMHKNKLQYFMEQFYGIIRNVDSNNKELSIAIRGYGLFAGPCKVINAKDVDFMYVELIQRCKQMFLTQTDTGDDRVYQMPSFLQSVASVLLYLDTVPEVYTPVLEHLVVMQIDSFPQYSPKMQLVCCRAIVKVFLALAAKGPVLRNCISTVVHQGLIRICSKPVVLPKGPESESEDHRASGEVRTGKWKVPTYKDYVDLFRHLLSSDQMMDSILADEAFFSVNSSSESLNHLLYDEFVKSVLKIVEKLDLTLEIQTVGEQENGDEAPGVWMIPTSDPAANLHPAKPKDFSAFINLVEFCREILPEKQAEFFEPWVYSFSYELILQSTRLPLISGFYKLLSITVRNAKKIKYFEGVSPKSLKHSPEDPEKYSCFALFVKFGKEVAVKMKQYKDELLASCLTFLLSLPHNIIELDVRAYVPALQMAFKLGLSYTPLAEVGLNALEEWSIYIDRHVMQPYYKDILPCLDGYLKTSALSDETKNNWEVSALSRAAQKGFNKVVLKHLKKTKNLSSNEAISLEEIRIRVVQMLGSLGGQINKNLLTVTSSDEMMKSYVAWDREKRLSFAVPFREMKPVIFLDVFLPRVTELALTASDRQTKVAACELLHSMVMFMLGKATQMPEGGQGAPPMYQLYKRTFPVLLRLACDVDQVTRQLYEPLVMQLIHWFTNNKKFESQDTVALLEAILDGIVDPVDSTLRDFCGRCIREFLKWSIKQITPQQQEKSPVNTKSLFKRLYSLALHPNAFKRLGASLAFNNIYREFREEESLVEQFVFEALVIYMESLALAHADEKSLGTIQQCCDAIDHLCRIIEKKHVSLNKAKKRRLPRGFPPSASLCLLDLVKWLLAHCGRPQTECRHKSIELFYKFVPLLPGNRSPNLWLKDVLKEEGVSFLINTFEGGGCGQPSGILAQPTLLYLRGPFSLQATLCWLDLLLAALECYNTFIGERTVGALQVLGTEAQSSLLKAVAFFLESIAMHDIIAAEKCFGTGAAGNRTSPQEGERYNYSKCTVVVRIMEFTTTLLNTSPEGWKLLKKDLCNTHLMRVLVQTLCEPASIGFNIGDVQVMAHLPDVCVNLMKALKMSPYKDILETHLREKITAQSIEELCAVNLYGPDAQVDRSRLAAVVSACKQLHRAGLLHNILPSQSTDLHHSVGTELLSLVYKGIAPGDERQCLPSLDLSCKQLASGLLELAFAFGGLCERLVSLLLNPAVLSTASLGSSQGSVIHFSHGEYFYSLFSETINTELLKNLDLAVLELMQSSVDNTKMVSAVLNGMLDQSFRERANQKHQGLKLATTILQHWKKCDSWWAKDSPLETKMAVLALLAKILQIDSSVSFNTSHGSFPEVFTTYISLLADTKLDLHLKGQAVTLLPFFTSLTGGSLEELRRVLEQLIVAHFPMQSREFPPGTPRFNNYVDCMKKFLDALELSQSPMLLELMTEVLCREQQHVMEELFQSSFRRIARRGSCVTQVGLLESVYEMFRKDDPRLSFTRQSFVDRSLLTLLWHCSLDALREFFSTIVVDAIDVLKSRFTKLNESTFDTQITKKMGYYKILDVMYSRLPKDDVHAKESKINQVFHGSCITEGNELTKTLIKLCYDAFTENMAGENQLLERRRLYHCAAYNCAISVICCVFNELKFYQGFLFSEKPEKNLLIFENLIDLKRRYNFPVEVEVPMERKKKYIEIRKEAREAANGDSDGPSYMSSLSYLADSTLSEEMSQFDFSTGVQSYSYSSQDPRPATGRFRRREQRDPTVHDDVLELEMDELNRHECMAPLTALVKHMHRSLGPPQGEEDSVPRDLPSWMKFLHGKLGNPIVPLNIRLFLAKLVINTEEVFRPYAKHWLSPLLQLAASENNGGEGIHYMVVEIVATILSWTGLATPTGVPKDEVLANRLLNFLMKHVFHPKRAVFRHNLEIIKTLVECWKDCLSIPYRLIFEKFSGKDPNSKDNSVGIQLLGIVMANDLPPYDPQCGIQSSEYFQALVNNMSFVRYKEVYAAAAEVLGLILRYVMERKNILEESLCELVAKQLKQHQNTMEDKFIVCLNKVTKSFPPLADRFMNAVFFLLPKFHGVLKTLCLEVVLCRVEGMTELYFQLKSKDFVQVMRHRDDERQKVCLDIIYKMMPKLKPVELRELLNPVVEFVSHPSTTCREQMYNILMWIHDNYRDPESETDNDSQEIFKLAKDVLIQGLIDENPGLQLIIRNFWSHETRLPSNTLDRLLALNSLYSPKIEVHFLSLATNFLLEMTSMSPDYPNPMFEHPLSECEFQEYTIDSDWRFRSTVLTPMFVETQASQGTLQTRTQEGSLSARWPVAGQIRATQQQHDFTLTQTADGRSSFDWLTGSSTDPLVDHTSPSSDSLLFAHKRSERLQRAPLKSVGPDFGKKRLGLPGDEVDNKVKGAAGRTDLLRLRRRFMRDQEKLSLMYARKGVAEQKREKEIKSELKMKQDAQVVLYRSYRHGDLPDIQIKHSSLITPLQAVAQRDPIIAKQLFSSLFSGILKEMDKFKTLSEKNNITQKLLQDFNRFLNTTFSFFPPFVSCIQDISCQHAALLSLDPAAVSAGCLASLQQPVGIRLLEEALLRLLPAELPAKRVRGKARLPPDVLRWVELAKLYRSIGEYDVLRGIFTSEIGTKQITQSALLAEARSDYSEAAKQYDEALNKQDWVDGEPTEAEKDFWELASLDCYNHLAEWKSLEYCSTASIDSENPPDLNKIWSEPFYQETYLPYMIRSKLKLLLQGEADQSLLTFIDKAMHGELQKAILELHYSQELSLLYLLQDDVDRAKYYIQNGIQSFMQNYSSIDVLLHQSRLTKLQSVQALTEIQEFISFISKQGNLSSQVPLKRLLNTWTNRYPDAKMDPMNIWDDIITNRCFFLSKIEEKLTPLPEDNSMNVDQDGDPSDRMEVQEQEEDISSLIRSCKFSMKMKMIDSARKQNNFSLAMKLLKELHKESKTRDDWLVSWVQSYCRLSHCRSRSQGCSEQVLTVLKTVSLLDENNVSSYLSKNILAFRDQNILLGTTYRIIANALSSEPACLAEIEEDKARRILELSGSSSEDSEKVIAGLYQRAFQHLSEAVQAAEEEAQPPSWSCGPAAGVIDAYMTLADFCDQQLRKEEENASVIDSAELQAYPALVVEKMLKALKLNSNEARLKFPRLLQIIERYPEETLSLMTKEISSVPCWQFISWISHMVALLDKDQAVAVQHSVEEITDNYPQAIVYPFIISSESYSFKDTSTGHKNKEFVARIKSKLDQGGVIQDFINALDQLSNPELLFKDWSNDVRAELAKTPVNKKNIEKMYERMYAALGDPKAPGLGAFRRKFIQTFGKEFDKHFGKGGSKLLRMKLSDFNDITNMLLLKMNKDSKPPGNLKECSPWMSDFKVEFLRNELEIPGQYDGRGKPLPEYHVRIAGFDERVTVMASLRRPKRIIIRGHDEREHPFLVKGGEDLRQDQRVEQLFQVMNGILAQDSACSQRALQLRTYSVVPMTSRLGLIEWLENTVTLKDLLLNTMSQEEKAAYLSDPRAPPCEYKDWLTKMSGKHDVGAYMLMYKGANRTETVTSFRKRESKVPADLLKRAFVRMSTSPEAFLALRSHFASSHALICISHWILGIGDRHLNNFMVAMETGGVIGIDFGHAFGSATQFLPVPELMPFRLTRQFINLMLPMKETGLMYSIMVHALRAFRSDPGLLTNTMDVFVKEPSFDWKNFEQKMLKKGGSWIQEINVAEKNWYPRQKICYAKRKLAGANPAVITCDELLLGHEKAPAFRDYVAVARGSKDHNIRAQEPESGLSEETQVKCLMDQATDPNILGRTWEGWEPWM

The IC50 is the concentration needed to halve the response being measured. As for `CO[C@H]1C[C@@H]2CC[C@@H](C)[C@@](O)(O2)C(=O)C(=O)N2CCCC[C@H]2C(=O)O[C@H]([C@H](C)C[C@@H]2CC[C@@H](OCCO)[C@H](OC)C2)CC(=O)[C@H](C)/C=C(\C)[C@@H](O)[C@@H](OC)C(=O)[C@H](C)C[C@H](C)/C=C/C=C/C=C/1C` [everolimus], in assay [1], the “tumor growth inhibition (TGI)” value was 52%. Further, the “tumor growth inhibition (TGI)” value in assay [2] was determined as 40%. The IC50 in assay [3] is 0.6 nM. Besides, the tumor hypoxic fraction in [4] is reported as 6.3±1.5%. The “change of tumor hypoxia (in words)” value in [4] (vs vehicle, combination vs mTOR inhibitor alone) is “increased hypoxia in the tumor; also recorded: significantly increases tumor hypoxia”. Further, the “tumor growth inhibition (TGI)” value in [5] amounted to 49%. Further, in [6], the “cell proliferation (expression of nuclear antigen Ki67)” value was “significantly decreased”, the “microvessel density (angiogenic marker CD31)” value is “significantly decreased” and the “phosphorylation of the S6 ribosomal protein (p-S6)” value is listed as “significantly decreased”.

Turning to `CO[C@H]1C[C@@H]2CC[C@@H](C)[C@@](O)(O2)C(=O)C(=O)N2CCCC[C@H]2C(=O)O[C@H]([C@H](C)C[C@@H]2CC[C@@H](OC(=O)C(C)(CO)CO)[C@H](OC)C2)CC(=O)[C@H](C)/C=C(\C)[C@@H](O)[C@@H](OC)C(=O)[C@H](C)C[C@H](C)/C=C/C=C/C=C/1C` [temsirolimus], the “tumor growth inhibition (TGI)” value in assay [7] was 113%. Besides, in assay [8], the tumor hypoxic fraction is 12.8±0.7% and the “change of tumor hypoxia (in words)” value is given as “significant increase of tumor hypoxia; also recorded: significantly increases tumor hypoxia”.

Regarding `Cn1c(COP(=O)(NCCBr)NCCBr)cnc1[N+](=O)[O-]` [TH-302], the “tumor growth inhibition (TGI)” value in assay [1] is listed as 57%; in assay [2], 45%; in assay [9] (TH-302 50 mg/kg i.p. starting on day 1) it was 79%; in [9] (TH-302 50 mg/kg i.p. starting on day 8) it was 89%; in assay [5], “did not demonstrate statistically significant efficacy; also recorded: did not demonstrate statistically significant TGI”. The values for the tumor hypoxic fraction in assay [4] and in [8] were 3.7±1.2% and 4.3±0.7%, respectively. In addition, the “change of tumor hypoxia (in words)” value in [8] was “reduces the size of the hypoxic region”.

Turning to `CNC(=O)Nc1ccc(-c2nc(N3CC4CCC(C3)O4)c3cnn(C4CCC5(CC4)OCCO5)c3n2)cc1` [WYE-125132], the IC50 in assay [3] is 0.19 nM.

On to `O=c1cc(N2CCOCC2)oc2c(-c3cccc4c3sc3ccccc34)cccc12` [NU7441], for which the figures for the IC50 in assay [3], in assay [10] and in assay [11] were 1700 nM, 10 nM and 5000 nM, respectively.

As for `c1cncc(CN2CCC(n3ncc4c(N5CCOCC5)nc(-c5ccc6[nH]ccc6c5)nc43)CC2)c1` [WAY-600], the IC50 in assay [3] is 9 nM.

Broadly, the GI50 is the concentration giving 50% growth inhibition. For `COc1ccc(COc2cc3oc(=O)c4cc(C(C)O)ccc4c3cc2OC)cc1` (stereo not drawn) [Palomid 529], the GI50 in [12] is under 35000 nM.

Turning to `COC(=O)Nc1ccc(-c2nc(N3CCOCC3)c3cnn(C4CCN(C(=O)OC)CC4)c3n2)cc1` [WYE-354], the IC50 in [3] is 5 nM.
